Measured values as given in patent publication US20260144788A1, “COMPOUND FOR SHP2 PROTEIN DEGRADATION AND MEDICAL USES THEREOF” (UBIX THERAPEUTICS, INC., priority 2022, published 2026).

Target: T1, SHP2 protein (Homo sapiens, UniProt Q06124)
T1 sequence (Q06124 1-593): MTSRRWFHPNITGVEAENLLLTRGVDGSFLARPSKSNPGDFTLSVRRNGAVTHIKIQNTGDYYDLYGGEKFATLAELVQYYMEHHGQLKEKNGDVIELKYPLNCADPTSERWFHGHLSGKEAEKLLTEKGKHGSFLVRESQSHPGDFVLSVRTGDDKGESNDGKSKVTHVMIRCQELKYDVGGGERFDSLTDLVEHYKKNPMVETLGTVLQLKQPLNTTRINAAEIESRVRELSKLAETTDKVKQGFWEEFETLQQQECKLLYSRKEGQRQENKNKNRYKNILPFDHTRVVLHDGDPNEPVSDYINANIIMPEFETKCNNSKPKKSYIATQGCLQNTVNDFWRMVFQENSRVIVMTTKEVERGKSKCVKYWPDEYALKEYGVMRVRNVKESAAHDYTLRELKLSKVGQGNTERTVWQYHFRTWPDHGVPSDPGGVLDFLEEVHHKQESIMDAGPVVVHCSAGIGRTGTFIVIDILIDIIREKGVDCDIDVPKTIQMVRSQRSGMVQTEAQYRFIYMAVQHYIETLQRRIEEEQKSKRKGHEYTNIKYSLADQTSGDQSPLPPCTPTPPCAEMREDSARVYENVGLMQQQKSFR
Assay: Measurement of SHP2 protein degradation in MV-4-11 cells (western blotting)
Format: cell-based
Parameters: endogenous in cells
Conditions: harvested after 24 hours
Summary of the method: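 MV-4-11 cells in IMDM/5% FBS were exposed to compound at final 0.01, 0.1, 1 μM or 0.001, 0.01, 0.1 μM for 24 h, DMSO as negative control. BCA-normalised lysates were immunoblotted for SHP2 with GAPDH as loading control, read on LI-COR Odyssey.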

## Cc1ncsc1-c1ccc(CNC(=O)[C@@H]2C[C@@H](O)CN2C(=O)[C@@H](NC(=O)C2(F)CC2)C(C)(C)C)c(OC2CCN(C(=O)C3CCN(c4nccc(Sc5cnc(N6CCC(C)(CN)CC6)cn5)c4Cl)CC3)CC2)c1 [Example 65, (2S,4R)—N-(2-((1-(1-(4-((5-(4-(aminomethyl)-4-methylpiperidin-1-yl)pyrazin-2-yl)thio)-3-chloropyridin-2-yl)piperidine-4-carbonyl)piperidin-4-yl)oxy)-4-(4-methylthiazol-5-yl)benzyl)-1-((S)-2-(1-fluorocyclopropane-1-carboxamido)-3,3-dimethylbutanoyl)-4-hydroxypyrrolidine-2-carboxamide]
0.01 μM
  SHP2% degradation: 85.2%
0.1 μM
  SHP2% degradation: 98.1%

## Cc1ncsc1-c1ccc(CNC(=O)[C@@H]2C[C@@H](O)CN2C(=O)[C@@H](NC(=O)C2(F)CC2)C(C)(C)C)c(O[C@H]2CC[C@H](C(=O)N3CC(Nc4cccc(Oc5cnc(N6CCC(C)(CN)CC6)cn5)c4Cl)C3)CC2)c1 [Example 16, (2S,4R)—N-(2-(((1R,4S)-4-(3-((3-((5-(4-(aminomethyl)-4-methylpiperidin-1-yl)pyrazin-2-yl)oxy)-2-chlorophenyl)amino)azetidine-1-carbonyl)cyclohexyl)oxy)-4-(4-methylthiazol-5-yl)benzyl)-1-((S)-2-(1-fluorocyclopropane-1-carboxamido)-3,3-dimethylbutanoyl)-4-hydroxypyrrolidine-2-carboxamide]
0.01 μM
  SHP2% degradation: −30.1%
0.1 μM
  SHP2% degradation: 94.3%

## CC(=O)N[C@H](C(=O)N1C[C@H](O)C[C@H]1C(=O)NCc1ccc(-c2scnc2C)cc1OC1CCN(C(=O)[C@H]2C[C@@H](Nc3nccc(Sc4cnc(N5CCC(C)(CN)CC5)cn4)c3Cl)C2)CC1)C(C)(C)C [Example 74, (2S,4R)-1-((S)-2-acetamido-3,3-dimethylbutanoyl)-N-(2-((1-((1S,3R)-3-((4-((5-(4-(aminomethyl)-4-methylpiperidin-1-yl)pyrazin-2-yl)thio)-3-chloropyridin-2-yl)amino)cyclobutanecarbonyl)piperidin-4-yl)oxy)-4-(4-methylthiazol-5-yl)benzyl)-4-hydroxypyrrolidine-2-carboxamide]
0.01 μM
  SHP2% degradation: 97.0%
0.1 μM
  SHP2% degradation: 99.8%

## Cc1ncsc1-c1ccc(CNC(=O)[C@@H]2C[C@@H](O)CN2C(=O)[C@@H](NC(=O)C2(F)CC2)C(C)(C)C)c(O[C@H]2CC[C@H](C(=O)N3CC(Nc4cccc(Sc5cnc(N6CCC(C)(CN)CC6)cn5)c4Cl)C3)CC2)c1 [Example 11, (2S,4R)—N-(2-(((1R,4S)-4-(3-((3-((5-(4-(aminomethyl)-4-methylpiperidin-1-yl)pyrazin-2-yl)thio)-2-chlorophenyl)amino)azetidine-1-carbonyl)cyclohexyl)oxy)-4-(4-methylthiazol-5-yl)benzyl)-1-((S)-2-(1-fluorocyclopropane-1-carboxamido)-3,3-dimethylbutanoyl)-4-hydroxypyrrolidine-2-carboxamide]
0.01 μM
  SHP2% degradation: 83%
0.1 μM
  SHP2% degradation: 97.9%

## Cc1ncsc1-c1ccc(CNC(=O)[C@@H]2C[C@@H](O)CN2C(=O)[C@@H](NC(=O)C2(F)CC2)C(C)(C)C)c(OC2CCN(C[C@H]3CC[C@H](Nc4nccc(Sc5cnc(N6CCC(C)(CN)CC6)cn5)c4Cl)CC3)CC2)c1 [Example 7, (2S,4R)—N-(2-((1-(((1R,4S)-4-((4-((5-(4-(aminomethyl)-4-methylpiperidin-1-yl)pyrazin-2-yl)thio)-3-chloropyridin-2-yl)amino)cyclohexyl)methyl)piperidin-4-yl)oxy)-4-(4-methylthiazol-5-yl)benzyl)-1-((S)-2-(1-fluorocyclopropane-1-carboxamido)-3,3-dimethylbutanoyl)-4-hydroxypyrrolidine-2-carboxamide]
0.01 μM
  SHP2% degradation: 10.1%
0.1 μM
  SHP2% degradation: 55.4%
